From patent US20140093457A1, “Compositions, methods and kits for remineralization and inhibition of dental caries in teeth” (President and Fellows of Harvard College, priority 2010, published 2014)
Entries after “also recorded” stand apart in the source; their conditions may differ. Each block holds one compound with its values, some of them ahead of it.

Experiments:
[1] = Detection probes on interproximal models of extracted human teeth; settings: for degree of detection: early stage caries lesion, optical observation; for emission wavelength (nm) / excitation/absorbance wavelength (nm): probe bound to interproximal enamel caries; for optical observation of early stage caries lesion with bound probe (photograph): tooth preparation illuminated and photographed
Procedure: Interproximal models of extracted human teeth (molars and premolars) were fabricated using silicon impression materials. Interproximal enamel caries at about […] depth and at about 1.5 mm depth were prepared by using areas of interproximal contact regions. The dental preparations having synthetic caries were assessed by radiographic films (bitewings) and a microscope.
A cotton ball was saturated with the detection probe, and placed in contact with the region of the interproximal enamel caries. The bound probe was observed by illuminating over a varying set of different wavelengths of excitation light, followed by detecting light of fluorescent emissions. Furthermore, absorbance of the illuminating wavelengths was detected as appropriate for each probe.
Each tooth preparation having interproximal enamel caries and bound probe was illuminated and photographed.

[2] = RFU comparison of solutions to release OsteoSense 750 from HA
Procedure: Variables included conditions of pH, temperature, and presence of 1% calcium chloride.
Three conditions were tested: incubation for 15 minutes at 37° C. after vortexing; adjusting pH to 6.5 at 23° C. after vortexing; and addition of 1% calcium chloride to each solution and incubation at room temperature after vortexing.

[3] = Intensity and duration of fluorescence of probe dilutions bound to caries; settings: for fluorescent intensity compared to IR820 (ICG): dilutions 1:10 and 1:100 of 1 mg/mL stock, deep and shallow lesions
Procedure: Probes were tested for appropriate concentration, kinetics of binding and retention. Intensity of the illumination light, and the size of the illumination light beam were varied, and data were recorded for each probe. […] The concentration of each probe was varied to determine an optimum concentration for binding during a time period suitable for dental use. Durations of contacting were also tested, for example about 10 seconds, about 20 seconds, about 40 seconds, or about 60 seconds. Binding of the probes to the surface of a tooth having different occlusal cavity conditions were also determined, e.g., plaque, gingival, calculus.
See FIG. 10A and FIG. 10B, and FIG. 11A-FIG. 11D.

[4] = 1% solution with calcium chloride (1%), room temperature
[5] = 1% solution, 15 minutes at 37° C.
[6] = 1% solution, pH 6.5, room temperature
[7] = 5% solution with calcium chloride (1%), room temperature
[8] = 5% solution, 15 minutes at 37° C.
[9] = 5% solution, pH 6.5, room temperature
[10] = 10% solution with calcium chloride (1%), room temperature
[11] = 10% solution, 15 minutes at 37° C.
[12] = 10% solution, pH 6.5, room temperature
[13] = 20% solution, 15 minutes at 37° C.
[14] = 20% solution with calcium chloride (1%), room temperature
[15] = 20% solution, pH 6.5, room temperature

Compound: O=P(O)(O)CP(=O)(O)O [methylene phosphoric acid (MDP), methylene phosphoric acid]
% released of total OsteoSense [2, 4]: 1.45%
% released of total reference value [2, 4]: 1.54%
Raw RFU value [2, 4]: 0.54 RFU
% released of total OsteoSense [2, 5]: 2.49%
% released of total reference value [2, 5]: 2.11%
Raw RFU value [2, 5]: 0.93 RFU
% released of total OsteoSense [2, 6]: 3.59%
% released of total reference value [2, 6]: 2.50%
Raw RFU value [2, 6]: 1.35 RFU
% released of total OsteoSense [2, 7]: 23.89%
% released of total reference value [2, 7]: 32.07%
Raw RFU value [2, 7]: 8.96 RFU
% released of total OsteoSense [2, 8]: 34.33%
% released of total reference value [2, 8]: 30.09%
Raw RFU value [2, 8]: 12.88 RFU
% released of total OsteoSense [2, 9]: 35.61%
% released of total reference value [2, 9]: 27.41%
Raw RFU value [2, 9]: 13.35 RFU
% released of total OsteoSense [2, 10]: 34.23%
% released of total reference value [2, 10]: 37.57%
Raw RFU value [2, 10]: 12.83 RFU
% released of total OsteoSense [2, 11]: 56.56%
% released of total reference value [2, 11]: 55.84%
Raw RFU value [2, 11]: 21.21 RFU
% released of total OsteoSense [2, 12]: 59.77%
% released of total reference value [2, 12]: 41.32%
Raw RFU value [2, 12]: 22.41 RFU
% released of total OsteoSense [2, 13]: −0.13%
Raw RFU value [2, 13]: −0.05 RFU
relative efficacy in removing OsteoSense 750 from HA ([2]; compared with the other agents): remove more OsteoSense 750 from HA than sodium phosphate monobasic or sodium phosphate dibasic at each concentration; also recorded: generally most effective for removing OsteoSense 750

Compound: CC1(C)C(/C=C/C=C/C=C/C=C2\N(CCCCS(=O)(=O)[O-])c3ccc4ccccc4c3C2(C)C)=[N+](CCCCS(=O)(=O)[O-])c2ccc3ccccc3c21.[Na+] [CardioGreen (ICG)]
fluorescent intensity compared to IR820 (ICG) [3]: greater fluorescent intensity at each concentration and lesion depth compared to IR820 (ICG)
degree of detection [1]: Good
emission wavelength (nm) [1]: 820-870 nm
excitation/absorbance wavelength (nm) [1]: 750-800 nm

Compound: O=P([O-])([O-])O.[Na+].[Na+] [sodium phosphate dibasic (D), sodium phosphate dibasic]
% released of total OsteoSense [2, 4]: 0.01%
% released of total reference value [2, 4]: 0.02%
Raw RFU value [2, 4]: 0.00 RFU
% released of total OsteoSense [2, 5]: 2.97%
% released of total reference value [2, 5]: 2.30%
Raw RFU value [2, 5]: 1.11 RFU
% released of total OsteoSense [2, 6]: 1.81%
% released of total reference value [2, 6]: 2.08%
Raw RFU value [2, 6]: 0.68 RFU
% released of total OsteoSense [2, 7]: 4.67%
% released of total reference value [2, 7]: 4.11%
Raw RFU value [2, 7]: 1.75 RFU
% released of total OsteoSense [2, 8]: 14.21%
% released of total reference value [2, 8]: 13.12%
Raw RFU value [2, 8]: 5.33 RFU
% released of total OsteoSense [2, 9]: 14.64%
% released of total reference value [2, 9]: 14.63%
Raw RFU value [2, 9]: 5.49 RFU
% released of total OsteoSense [2, 10]: 4.90%
% released of total reference value [2, 10]: 5.28%
Raw RFU value [2, 10]: 1.84 RFU
% released of total OsteoSense [2, 11]: 27.90%
% released of total reference value [2, 11]: 31.69%
Raw RFU value [2, 11]: 10.46 RFU
% released of total OsteoSense [2, 12]: 25.75%
% released of total reference value [2, 12]: 21.10%
Raw RFU value [2, 12]: 9.66 RFU
% released of total OsteoSense [2, 14]: 14.02%
% released of total reference value [2, 14]: 29.08%
Raw RFU value [2, 14]: 5.26 RFU
% released of total OsteoSense [2, 13]: 35.48%
% released of total reference value [2, 13]: 27.01%
Raw RFU value [2, 13]: 13.30 RFU
% released of total OsteoSense [2, 15]: 56.19%
% released of total reference value [2, 15]: 55.57%
Raw RFU value [2, 15]: 21.07 RFU

Compound: O=P([O-])(O)O.[Na+] [sodium phosphate monobasic (M), sodium phosphate monobasic]
% released of total OsteoSense [2, 4]: 0.60%
% released of total reference value [2, 4]: 2.51%
Raw RFU value [2, 4]: 0.22 RFU
% released of total OsteoSense [2, 5]: 3.10%
% released of total reference value [2, 5]: 3.65%
Raw RFU value [2, 5]: 1.16 RFU
% released of total OsteoSense [2, 6]: 6.36%
% released of total reference value [2, 6]: 9.73%
Raw RFU value [2, 6]: 2.38 RFU
% released of total OsteoSense [2, 7]: 5.34%
% released of total reference value [2, 7]: 11.39%
Raw RFU value [2, 7]: 2.00 RFU
% released of total OsteoSense [2, 8]: 10.41%
% released of total reference value [2, 8]: 13.11%
Raw RFU value [2, 8]: 3.90 RFU
% released of total OsteoSense [2, 9]: 23.87%
% released of total reference value [2, 9]: 31.74%
Raw RFU value [2, 9]: 8.95 RFU
% released of total OsteoSense [2, 10]: 10.27%
% released of total reference value [2, 10]: 20.25%
Raw RFU value [2, 10]: 3.85 RFU
% released of total OsteoSense [2, 11]: 23.92%
% released of total reference value [2, 11]: 32.36%
Raw RFU value [2, 11]: 8.97 RFU
% released of total OsteoSense [2, 12]: 32.44%
% released of total reference value [2, 12]: 45.17%
Raw RFU value [2, 12]: 12.16 RFU
% released of total OsteoSense [2, 14]: 20.04%
% released of total reference value [2, 14]: 39.19%
Raw RFU value [2, 14]: 7.51 RFU
% released of total OsteoSense [2, 13]: 27.67%
% released of total reference value [2, 13]: 50.11%
Raw RFU value [2, 13]: 10.37 RFU
% released of total OsteoSense [2, 15]: 33.90%
% released of total reference value [2, 15]: 51.43%
Raw RFU value [2, 15]: 12.71 RFU

Compound: C=Cc1c(C)c2cc3nc(c4c5[n-]c(cc6nc(cc1[n-]2)C(C)=C6CC)c(C)c5C(=O)[C@@H]4C(=O)OC)[C@@H](CCC(=O)OC/C=C(\C)CCC[C@H](C)CCC[C@H](C)CCCC(C)C)[C@@H]3C.[Mg+2] [Chlorophyll A]
degree of detection [1]: Good
emission wavelength (nm) [1]: 670-900 nm
excitation/absorbance wavelength (nm) [1]: 614 nm
optical observation of early stage caries lesion with bound probe (photograph) [1]: Fluorescence of an early stage caries lesion was observed

Now from value to compound, other results behind:

emission wavelength (nm) [1]: 845 nm
excitation/absorbance wavelength (nm) [1]: 745 nm
Compound: CC1(C)C(=CC=C2CCCC(C=CC3=[N+](CCCCS(=O)(=O)[O-])c4ccc5ccccc5c4C3(C)C)=C2Cl)N(CCCCS(=O)(=O)[O-])c2ccc3ccccc3c21.[Na+] [IR820 (ICG)]
degree of detection [1]: Good

emission wavelength (nm) [1]: 835 nm
excitation/absorbance wavelength (nm) [1]: 800 nm
Compound: CC1(C)C(/C=C/C=C/C=C/C=C2\N(CCCCS(=O)(=O)O)c3ccc4ccccc4c3C2(C)C)=[N+](CCCCS(=O)(=O)[O-])c2ccc3ccccc3c21 [Indocyanine Green]
degree of detection [1]: Weak

emission wavelength (nm) [1]: 700 nm
excitation/absorbance wavelength (nm) [1]: 600 nm
Compound: C1=Cc2cc3ccc(cc4nc(cc5ccc(cc1n2)[nH]5)C=C4)[nH]3 [Porphyrin]
degree of detection [1]: Good
optical observation of early stage caries lesion with bound probe (photograph) [1]: Fluorescence of an early stage caries lesion was observed

emission wavelength (nm) [1]: 630 nm
excitation/absorbance wavelength (nm) [1]: 480 nm
Compound: COc1cccc2c1C(=O)c1c(O)c3c(c(O)c1C2=O)C[C@@](O)(C(=O)CO)C[C@@H]3O[C@H]1C[C@H](N)[C@H](O)[C@H](C)O1 [Doxorubicin]
degree of detection [1]: Good
optical observation of early stage caries lesion with bound probe (photograph) [1]: Fluorescence of an early stage caries lesion was observed

emission wavelength (nm) [1]: 760-800 nm
excitation/absorbance wavelength (nm) [1]: 700-770 nm
Compound: cyanine dye 7 [Cy7]
retained fluorescence intensity compared to CardioGreen (ICG) diluted 1:10 ([3]; diluted 1:10, deep and shallow lesions): much greater intensity in both deep and shallow lesions
fluorescent intensity compared to IR820 (ICG) [3]: greater fluorescent intensity at each concentration and lesion depth compared to IR820 (ICG)
